Results on 18 compounds are retold here after ChEMBL document CHEMBL5241100, “Sulfonamide derivatives as potential anti-cancer agents and their SARs elucidation” (Eur J Med Chem, 2021).

Data set [1] has as its target T1, Carbonic anhydrase 9 (Homo sapiens, UniProt Q16790).
The subject of a further data set is Ca9-22. Briefly: Cytotoxicity against human Ca9-22 cells assessed as reduction in cell viability by MTT assay. It is filed as functional.
The next data set deals with HSC-2. Briefly: Cytotoxicity against human HSC-2 cells assessed as reduction in cell viability by MTT assay. Format: functional. A general note: Tetrazolium dyes change colour on reduction, which living cells bring about.
A further data set has as its target Carbonic anhydrase 1 (Homo sapiens, UniProt P00915). Briefly: Inhibition of human CA1.
The target in a further data set is Carbonic anhydrase 2 (Homo sapiens, UniProt P00918). Briefly: Inhibition of human CA2.
For data set [2], the target named is T1, Carbonic anhydrase 9. Briefly: Inhibition of human CA9.
A further data set deals with Carbonic anhydrase 12 (Homo sapiens, UniProt O43570). Briefly: Inhibition of human CA12.
Carbonic anhydrase 12, sequence (O43570 whole entry): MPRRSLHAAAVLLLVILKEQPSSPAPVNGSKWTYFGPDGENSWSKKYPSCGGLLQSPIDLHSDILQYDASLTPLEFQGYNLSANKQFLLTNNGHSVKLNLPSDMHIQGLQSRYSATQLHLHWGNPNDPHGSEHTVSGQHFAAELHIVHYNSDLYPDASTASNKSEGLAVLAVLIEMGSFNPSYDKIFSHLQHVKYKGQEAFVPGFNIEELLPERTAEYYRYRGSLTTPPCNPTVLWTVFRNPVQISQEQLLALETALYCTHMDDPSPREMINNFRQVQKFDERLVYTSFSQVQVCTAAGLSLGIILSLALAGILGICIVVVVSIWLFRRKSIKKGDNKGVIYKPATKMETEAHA
Another data set relates to HCT-116. Briefly: cells. The note with it: Homo sapiens, HCT-116, 48 h.
Data set [3] can be described thus: Oral bioavailability in mouse. Format: ADME, organism-based. The settings on record: in vivo.
Data set [4] concerns the target T2, Induced myeloid leukemia cell differentiation protein Mcl-1 (Homo sapiens, UniProt Q07820). Briefly: Inhibition of TAMRA-labeled BIM-BH3 peptide binding to 6His-tagged human recombinant Mcl-1 (171 to 327 residues) incubated for 120 mins by fluorescence polarization assay. A general note: In fluorescence polarisation assays a small probe gives low polarisation when free and higher when bound to something large.

For data set [5], the target named is Apoptosis regulator Bcl-2 (Homo sapiens, UniProt P10415). Briefly: Inhibition of fluorescent-labeled BID-BH3 peptide binding to Bcl-2 (unknown origin) by fluorescence polarization assay.
Apoptosis regulator Bcl-2, sequence (P10415 whole entry): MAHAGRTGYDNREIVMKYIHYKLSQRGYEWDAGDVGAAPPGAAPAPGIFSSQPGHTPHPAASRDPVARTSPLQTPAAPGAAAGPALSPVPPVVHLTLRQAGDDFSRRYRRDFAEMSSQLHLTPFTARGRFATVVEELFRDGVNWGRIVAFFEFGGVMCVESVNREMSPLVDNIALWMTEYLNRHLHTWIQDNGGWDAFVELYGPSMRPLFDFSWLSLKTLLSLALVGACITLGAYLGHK
In data set [6] the target is T2, Induced myeloid leukemia cell differentiation protein Mcl-1. Briefly: Inhibition of fluorescent-labeled BID-BH3 peptide binding to Mcl-1 (unknown origin) by fluorescence polarization assay.
A further data set concerns Jurkat. It is filed as functional, cell-based. The note with it: Homo sapiens, 72 h.
Another data set has as its system RS4-11. It is filed as functional, cell-based. The note with it: Homo sapiens, RS4-11, 72 h.
The next data set concerns KG-1. It is filed as functional, cell-based. The note with it: Homo sapiens, KG-1, 72 h.
For another data set, the system named is MOLT-4. Format: functional, cell-based. The settings on record: Homo sapiens, MOLT-4, 72 h.
In a further data set the test system is HL-60. Format: functional, cell-based. The settings on record: Homo sapiens, HL-60, 72 h.
Data set [7] has as its target T2, Induced myeloid leukemia cell differentiation protein Mcl-1. Briefly: Inhibition of fluorescent-labeled BID-BH3 peptide binding to Mcl-1 (unknown origin) incubated for 20 mins by fluorescence polarization assay.
The target of data set [8] is T1, Carbonic anhydrase 9. Briefly: Inhibition of carbonic anhydrase 9 (unknown origin) using 4-nitrophenylacetate as substrate by UV/visible spectrophotometer analysis.
Another data set concerns the target DNA topoisomerase 1 (Homo sapiens, UniProt P11387). Briefly: Inhibition of topoisomerase 1 (unknown origin) assessed as relaxation of supercoiled […] incubated for 30 mins ethidium bromide staining based UV transilluminator analysis.
Data set [9] can be described thus: Inhibition of topoisomerase 2 (unknown origin) assessed as relaxation of supercoiled kDNA incubated for 30 mins ethidium bromide staining based UV transilluminator analysis. On the set-up: species or system Homo sapiens.
Another data set has as its target Aromatase (Homo sapiens, UniProt P11511). Briefly: Inhibition of human aromatase preincubated with NADPH regenerating system for 10 mins followed by substrate addition by fluorescence based analysis.
In another data set the test system is HepG2. Briefly: Antiproliferative activity against human HepG2 cells assessed as inhibition of cell growth by SRB assay. It is filed as functional, cell-based. On the technique in general: The SRB assay estimates cell density from bound dye.
Data set [10] concerns the target T2, Induced myeloid leukemia cell differentiation protein Mcl-1. Briefly: Inhibition of FITC-labeled BID-BH3 peptide binding to Mcl-1 (unknown origin) by fluorescence polarization assay.
The test system of a further data set is A-375. Briefly: Cytotoxicity against human A-375 cells assessed as inhibition of cell growth. It is filed as functional.
Data set [11] can be described thus: Half life in iv dosed mouse. The settings on record: in vivo. It is filed as ADME, organism-based.
The next data set has as its system OPM-2. Briefly: Antitumor activity against firefly luciferase-labeled human OPM-2 cells xenografted in mouse assessed as tumor growth inhibition at 20 mg/kg, po administered once daily with carfilzomib at 3 mg/kg, iv administered twice weekly and measured after 19 days. Format: functional. The settings on record: OPM-2, 456 h, time 19 day.
In a further data set the test system is MOLM-13. Briefly: Antitumor activity against human MOLM-13 cells xenografted in mouse assessed as tumor growth inhibition administered with carfilzomib. It is filed as functional.

The IC50 is the point on the concentration scale where inhibition reaches its midpoint. In general, CC50 refers to the concentration that lowers cell viability or growth by half. By Ki is commonly meant a dissociation constant, usually derived from enzyme kinetics or from competition with a known ligand. Lower therefore signals a stronger hold on the target. As a reminder, the bioavailability is dose-corrected exposure relative to a reference, in per cent. Low values mean little systemic uptake, high ones much systemic uptake. What is called GI50 is the concentration that inhibits growth by half. In general, half-life refers to the time needed for the level to fall by half in the phase considered. A low value points to fast loss. In general, inhibition in vivo refers to the share of the control response that was lost under treatment.

T2 sequence (Q07820 whole entry, the tested form may be a part): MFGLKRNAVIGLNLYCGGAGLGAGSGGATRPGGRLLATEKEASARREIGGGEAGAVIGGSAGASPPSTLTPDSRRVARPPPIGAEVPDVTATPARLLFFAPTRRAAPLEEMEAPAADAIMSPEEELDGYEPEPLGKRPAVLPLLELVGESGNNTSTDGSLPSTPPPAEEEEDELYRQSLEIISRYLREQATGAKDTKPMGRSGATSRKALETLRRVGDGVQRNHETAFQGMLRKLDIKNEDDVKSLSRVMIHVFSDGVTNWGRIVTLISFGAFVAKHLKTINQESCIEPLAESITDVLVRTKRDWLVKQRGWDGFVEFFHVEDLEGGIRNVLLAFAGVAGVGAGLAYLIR
Carbonic anhydrase 1, sequence (P00915 whole entry): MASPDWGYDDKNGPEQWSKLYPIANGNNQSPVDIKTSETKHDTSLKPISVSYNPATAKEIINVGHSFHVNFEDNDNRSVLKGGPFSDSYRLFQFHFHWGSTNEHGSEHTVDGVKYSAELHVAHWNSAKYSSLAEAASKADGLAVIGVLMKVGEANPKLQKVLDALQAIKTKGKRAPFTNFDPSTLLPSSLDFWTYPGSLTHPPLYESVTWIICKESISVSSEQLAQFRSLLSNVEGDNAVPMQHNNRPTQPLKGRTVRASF
Aromatase, sequence (P11511 whole entry): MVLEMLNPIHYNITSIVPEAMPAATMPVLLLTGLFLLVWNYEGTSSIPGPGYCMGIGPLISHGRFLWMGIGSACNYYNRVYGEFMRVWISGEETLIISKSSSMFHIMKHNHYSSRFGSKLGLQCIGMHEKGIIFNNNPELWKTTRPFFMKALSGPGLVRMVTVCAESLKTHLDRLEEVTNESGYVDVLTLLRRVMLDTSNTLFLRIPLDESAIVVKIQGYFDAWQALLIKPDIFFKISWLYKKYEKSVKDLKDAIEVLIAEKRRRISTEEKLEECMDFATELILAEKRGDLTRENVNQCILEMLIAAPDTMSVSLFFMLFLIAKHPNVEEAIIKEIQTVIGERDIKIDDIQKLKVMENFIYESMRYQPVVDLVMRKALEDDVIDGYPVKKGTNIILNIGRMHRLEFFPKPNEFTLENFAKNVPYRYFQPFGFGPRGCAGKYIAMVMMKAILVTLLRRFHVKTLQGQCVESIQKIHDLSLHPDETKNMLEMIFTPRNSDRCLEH
DNA topoisomerase 1, sequence (P11387 whole entry): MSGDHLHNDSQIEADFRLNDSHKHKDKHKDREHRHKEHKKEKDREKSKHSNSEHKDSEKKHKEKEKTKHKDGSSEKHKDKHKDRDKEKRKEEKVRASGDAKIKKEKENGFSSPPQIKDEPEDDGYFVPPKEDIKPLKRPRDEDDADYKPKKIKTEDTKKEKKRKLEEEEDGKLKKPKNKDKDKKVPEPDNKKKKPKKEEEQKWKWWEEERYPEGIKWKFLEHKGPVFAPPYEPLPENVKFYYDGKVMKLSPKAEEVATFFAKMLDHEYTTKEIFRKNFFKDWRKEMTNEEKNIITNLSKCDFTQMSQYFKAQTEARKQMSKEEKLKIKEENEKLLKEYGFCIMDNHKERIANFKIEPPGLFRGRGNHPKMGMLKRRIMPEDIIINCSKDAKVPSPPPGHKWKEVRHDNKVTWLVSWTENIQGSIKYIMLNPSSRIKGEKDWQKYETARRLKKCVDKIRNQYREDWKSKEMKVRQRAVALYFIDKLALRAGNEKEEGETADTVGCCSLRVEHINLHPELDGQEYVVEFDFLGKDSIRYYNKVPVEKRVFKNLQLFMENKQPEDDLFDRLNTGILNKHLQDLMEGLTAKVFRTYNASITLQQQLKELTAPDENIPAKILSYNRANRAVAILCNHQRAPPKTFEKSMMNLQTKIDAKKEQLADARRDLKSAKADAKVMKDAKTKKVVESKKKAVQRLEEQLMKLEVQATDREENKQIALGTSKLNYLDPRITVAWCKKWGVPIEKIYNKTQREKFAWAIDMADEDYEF

The compound `NS(=O)(=O)c1ccc(O)cc1` returned an IC50 against Carbonic anhydrase 9 [1] of 32 µM.
`COc1cc(C2CC(c3cccs3)=NN2c2ccc(S(N)(=O)=O)cc2)cc(OC)c1OC` (stereo not given): the CC50 in the data set on Ca9-22 and in the data set with HSC-2 was 6.3 µM throughout. The Ki was ≥ 0.23 µM on Carbonic anhydrase 1, 0.089 µM at Carbonic anhydrase 2, ≥ 0.044 µM on Carbonic anhydrase 9 [2] and ≥ 0.009 µM at Carbonic anhydrase 12.
Consider `NS(=O)(=O)c1ccc(CC/N=C2\NC(=O)/C(=C3/C(=O)Nc4ccc(F)cc43)S2)cc1`, for which the IC50 in the data set on HCT-116 stood at 3.67 µM.
`CC[C@@H]1CC/C=C/[C@H](O)[C@@H]2CC[C@H]2CN2C[C@@]3(CCCc4cc(Cl)ccc43)COc3ccc(cc32)C(=O)NS1(=O)=O`: the bioavailability in [3] amounted to 6%.
As for `COc1cc(C2CC(c3ccc(F)cc3)=NN2c2ccc(S(N)(=O)=O)cc2)cc(OC)c1OC` (stereo not given), the CC50 in the data set with Ca9-22 and in the data set on HSC-2 was 6.3 µM throughout. Also, the Ki at Carbonic anhydrase 1 is ≥ 0.23 µM; on Carbonic anhydrase 2 it was 0.089 µM; at Carbonic anhydrase 9 [2] it was ≥ 0.044 µM; at Carbonic anhydrase 12, ≥ 0.009 µM.
As for `CO[C@@H]1O[C@H](Cn2cc(COc3ccc(S(N)(=O)=O)cc3)nn2)[C@@H](O)[C@H](O)[C@H]1O`, the IC50 against Carbonic anhydrase 9 [1] turned out to be 0.007 µM.
In the case of `O=C1NSCCOCCCCCCN2C[C@@]3(CCc4cc(Cl)ccc43)COc3ccc1cc32`, the IC50 in [4] came to 0.01 µM.
On to `O=C(NS(=O)(=O)c1ccc(Cl)c([N+](=O)[O-])c1)[C@@H]1Cc2cc(Br)c(OCc3ccc(-c4ccccc4)cc3)c(Br)c2CC1Cc1ccc([N+](=O)[O-])cc1` (stereo not given in full), for which the Ki in data set [5] was 0.41 µM; in data set [6] it was 0.26 µM. Further, the 50% inhibitory concentration (IC50) in the data set on Jurkat, in the data set on RS4-11, with KG-1, in the data set with MOLT-4 and in the data set on HL-60 was 12.8 µM throughout.
`O=C(NS(=O)(=O)c1ccc(Cl)c([N+](=O)[O-])c1)c1nn(Cc2ccc(Cl)c(Cl)c2)c2ccccc12` showed a Ki in [7] of 0.43 µM.
As to `CC(C)CN1C[C@H](c2ccc(Cl)cc2Cl)Oc2ccc(C(=O)O)cc21`, in data set [4], the IC50 was 2.1 µM.
At Carbonic anhydrase 9 [8], `Nc1ccc(S(=O)(=O)Nc2ccsc2-c2nc(-c3ccccc3)no2)cc1` had an IC50 of 0.74 µM.
As for `N#Cc1ccc(CC2Cc3c(cc(Br)c(OCc4ccc(-c5ccccc5)cc4)c3Br)C[C@H]2C(=O)NS(=O)(=O)c2ccc(Cl)c([N+](=O)[O-])c2)cc1` (stereo not given in full), the Ki in [5] was 0.45 µM; in data set [6] it was 0.35 µM. Moreover, the IC50 in the data set with Jurkat, in the data set with RS4-11, in the data set on KG-1, in the data set on MOLT-4 and in the data set on HL-60 was 12.8 µM each time.
With `CC1CCN(S(=O)(=O)c2ccc(-c3ccno3)cc2)CC1`, the IC50 at DNA topoisomerase 1 was 27.8 µM; in [9] it was 33.6 µM.
The compound `COc1cc2c(cc1OC)CN(S(=O)(=O)c1cccc(-n3cc(COc4ccc5ccccc5c4)nn3)c1)CC2` gave an IC50 on Aromatase of 0.07 µM.
Consider `CC1CCN(S(=O)(=O)c2ccc(C(=O)c3coc4ccc(O)cc34)cc2)CC1`, for which the half-maximal inhibitory concentration (IC50) with HepG2 was 6.2 µM.
`Cc1cc(S(=O)(=O)N2CC(C(=O)O)Cc3ccccc32)cc(C)c1Cl` (racemic) gave a Ki in data set [10] of 0.12 µM. Besides, the GI50 in the data set with A-375 stood at 50 µM.
Compound `Cc1cc2c(C(C)C)c(O)c(O)c(C=O)c2c(O)c1-c1c(C)cc2c(C(C)C)c(O)c(O)c(C=O)c2c1O` [GOSSYPOL] returned a Ki in [7] of 0.45 µM.
In [3], `CO[C@H]1/C=C/C[C@H](C)[C@@H](C)S(=O)(=O)NC(=O)c2ccc3c(c2)N(C[C@@H]2CC[C@H]21)C[C@@]1(CCCc2cc(Cl)ccc21)CO3` [TAPOTOCLAX] returned a bioavailability of 32%. The half-life in data set [11] was 14 h. In addition, the inhibition in vivo at 20 mg/kg with OPM-2 amounted to 99%. Further, the “inhibition (INH)” value in the data set with MOLM-13 amounted to 99%.
